Assay results reported in US20130109734A1 (Metabolex, Inc., priority 2010, published 2013).

target: T1, human GPR120 (Homo sapiens, UniProt Q5NUL3); assay: Intracellular Ca2+ assay in human GPR120 stable cell line (HEK293 co-expressing Gqi5), Flexstation; type: cell-based; details: % activity at 5 μM compared to the maximal activity of GW9508 at 6.7 μM (=100%); human GPR120 cells, Ca2+ fluorescence
T1 construct: host or cells: HEK293 cells co-expressing Gqi5
T1 sequence (Q5NUL3 1-361): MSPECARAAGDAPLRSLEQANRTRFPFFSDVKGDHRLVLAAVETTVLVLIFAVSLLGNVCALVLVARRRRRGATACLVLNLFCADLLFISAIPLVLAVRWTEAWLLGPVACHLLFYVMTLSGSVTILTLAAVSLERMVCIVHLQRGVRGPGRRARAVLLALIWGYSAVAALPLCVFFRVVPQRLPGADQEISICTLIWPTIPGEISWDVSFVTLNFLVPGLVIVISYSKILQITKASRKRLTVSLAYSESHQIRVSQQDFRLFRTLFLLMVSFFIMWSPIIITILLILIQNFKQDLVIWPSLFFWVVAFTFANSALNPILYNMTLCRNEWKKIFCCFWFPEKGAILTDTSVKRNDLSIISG
In short: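 HEK293 cells stably co-expressing Gqi5 and Flag-tagged human GPR120, loaded with Calcium 4 dye in HBSS/HEPES pH 7.4 at 37 °C; compounds at eight concentrations, 0.00001–20 μM, fluorescence (485/525 nm) read 90 s. EC50 from Max−Min change; percent activity relative to GW9508 maximum at 6.7 μM.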

SMILES | % Activity (GW9508 Reference Compound) [%]
CC1(C)Cc2c(COc3ccc4c(c3)CC[C@@H]4CC(=O)O)cc(F)cc2O1 [Example 188, (R)-2-(5-((6-fluoro-2,2-dimethyl-2,3-dihydrobenzofuran-4-yl)methoxy)-2,3-dihydro-1H-inden-1-yl)acetic acid] | 104.04
Cc1cc(OCC(=O)O)ccc1OCc1cc(Cl)cc2c1OC(C)(C)C2 [Example 103, 2-(4-((5-chloro-2,2-dimethyl-2,3-dihydrobenzofuran-7-yl)methoxy)-3-methylphenoxy)acetic acid] | 98.96
CC(Cc1ccc(OCc2cc(-n3cnnn3)cc3c2OC(C)(C)C3)cc1)C(=O)O (stereo not shown) [Example 90, 3-(4-((2,2-dimethyl-5-(1H-tetrazol-1-yl)-2,3-dihydrobenzofuran-7-yl)methoxy)phenyl)-2-methylpropanoic acid] | 75.86
Cc1cc(OCc2cc(F)cc3c2OC(C)(C)C3)c(C)cc1CCC(=O)O [Example 206, 3-(4-((5-fluoro-2,2-dimethyl-2,3-dihydrobenzofuran-7-yl)methoxy)-2,5-dimethylphenyl)propanoic acid] | 111.45
CC(Cc1cc(F)c(OCc2cc(OCc3ccccc3)cc3c2OC(C)(C)C3)c(F)c1)C(=O)O (stereo not shown) [Example 111, 3-(4-((5-(benzyloxy)-2,2-dimethyl-2,3-dihydrobenzofuran-7-yl)methoxy)-3,5-difluorophenyl)-2-methylpropanoic acid] | 51.55
CC(Cc1ccc(OCc2cc(Cl)cc3c2OC(C)(C)C3O)c(F)c1)C(=O)O (stereo not shown) [Example 80, 3-(4-((5-chloro-3-hydroxy-2,2-dimethyl-2,3-dihydrobenzofuran-7-yl)methoxy)-3-fluorophenyl)-2-methylpropanoic acid] | 86.25
CC1(C)Cc2cc(F)cc(COc3ccc4c(c3)CC[C@H]4CC(=O)O)c2O1 [Example 175, (S)-2-(5-((5-fluoro-2,2-dimethyl-2,3-dihydrobenzofuran-7-yl)methoxy)-2,3-dihydro-1H-inden-1-yl)acetic acid] | 152.44
CC(Cc1cc(F)c(OCc2cccc3c2OC(C)(C)CC3)c(F)c1)C(=O)O (stereo not shown) [Example 2, 3-(4-((2,2-dimethylchroman-8-yl)methoxy)-3,5-difluorophenyl)-2-methylpropanoic acid] | 134.6745
[2H]C([2H])(C(=O)O)C([2H])([2H])c1ccc(OCc2cc(Cl)cc3c2OC(C)(C)C3)c(F)c1 [Example 241, 3-(4-((5-chloro-2,2-dimethyl-2,3-dihydrobenzofuran-7-yl)methoxy)-3-fluorophenyl)-2,2,3,3-tetradeuteriopropanoic acid] | 159.62
CC1(C)Cc2cc(F)cc(COc3ccc4c(c3)CC[C@@H]4CC(=O)O)c2O1 [Example 178, (R)-2-(5-((5-fluoro-2,2-dimethyl-2,3-dihydrobenzofuran-7-yl)methoxy)-2,3-dihydro-1H-inden-1-yl)acetic acid] | 106
CC1(C)Cc2cc(F)cc(COc3c(F)cc(CC4CC4C(=O)O)cc3F)c2O1 (single isomer, unassigned) [Example 184A, 2-(3,5-difluoro-4-((5-fluoro-2,2-dimethyl-2,3-dihydrobenzofuran-7-yl)methoxy)benzyl)cyclopropanecarboxylic acid] | 95.58
COc1cccc(-c2cc(COc3ccc(CC(C)C(=O)O)cc3)c3c(c2)CC(C)(C)O3)c1 (stereo not shown) [Example 86, 3-(4-((5-(3-methoxyphenyl)-2,2-dimethyl-2,3-dihydrobenzofuran-7-yl)methoxy)phenyl)-2-methylpropanoic acid] | 5.23
Cc1cc(OCc2cc(F)cc3c2OC(C)(C)C3)ccc1CCC(=O)O [Example 46, 3-(4-((5-fluoro-2,2-dimethyl-2,3-dihydrobenzofuran-7-yl)methoxy)-2-methylphenyl)propanoic acid] | 113.55
CC1(C)Cc2cc(Cl)cc(COc3ccc(SCC(=O)O)cc3)c2O1 [Example 59, 2-((4-((5-chloro-2,2-dimethyl-2,3-dihydrobenzofuran-7-yl)methoxy)phenyl)thio)-acetic acid] | 117.58
CC(Cc1ccc(OCc2cc(Cl)cc3c2OC(C)(C)C3)c(CN(C)C)c1)C(=O)O (stereo not shown) [Example 88, 3-(4-((5-chloro-2,2-dimethyl-2,3-dihydrobenzofuran-7-yl)methoxy)-3-((dimethylamino)methyl)phenyl)-2-methylpropanoic acid] | 118.92
COc1cc(CC(C)C(=O)O)ccc1OCc1cc(Cl)cc2c1OC(C)(C)C2 (stereo not shown) [Example 15, 3-(4-((5-chloro-2,2-dimethyl-2,3-dihydrobenzofuran-7-yl)methoxy)-3-methoxyphenyl)-2-methylpropanoic acid] | 109.2

SMILES | % Activity (GW9508 Reference Compound) [%]
Cc1cc(OCc2cc(F)cc3c2OC(C)(C)C3)c(F)cc1CCC(=O)O [Example 214, 3-(5-fluoro-4-((5-fluoro-2,2-dimethyl-2,3-dihydrobenzofuran-7-yl)methoxy)-2-methylphenyl)propanoic acid] | 143.21
Cc1nc2cccc(COc3c(F)cc(CC(C)C(=O)O)cc3F)c2o1 (stereo not shown) [Example 261, 3-(3,5-difluoro-4-((2-methylbenzo[d]oxazol-7-yl)methoxy)phenyl)-2-methylpropanoic acid] | 108.78
CC(Cc1cc(F)c(OCc2cc(Cl)cc3c2OC(C)(C)C3)c(F)c1)C(=O)O (stereo not shown) [Example 38, 3-(4-((5-chloro-2,2-dimethyl-2,3-dihydrobenzofuran-7-yl)methoxy)-3,5-difluorophenyl)-2-methylpropanoic acid] | 83.43
CC1(C)Cc2cc(Cl)cc(COc3ccccc3CCC(=O)O)c2O1 [Example 250, 3-(2-((5-chloro-2,2-dimethyl-2,3-dihydrobenzofuran-7-yl)methoxy)phenyl)propanoic acid] | 10.23
CC1(C)Cc2cc(F)cc(CCc3ccc(OCC(=O)O)cc3)c2O1 [Example 70, 2-(4-(2-(5-fluoro-2,2-dimethyl-2,3-dihydrobenzofuran-7-yl)ethyl)phenoxy)acetic acid] | 117.72
Cc1cc(CCC(=O)O)c(C)c(C)c1OCc1cc(F)cc2c1OC(C)(C)C2 [Example 254, 3-(4-((5-fluoro-2,2-dimethyl-2,3-dihydrobenzofuran-7-yl)methoxy)-2,3,5-trimethylphenyl) propanoic acid] | 146.14
CC1(C)Cc2cc(F)cc(COc3c(F)cc(CC4CC4C(=O)O)cc3F)c2O1 (single isomer, unassigned) [Example 184B, 2-(3,5-difluoro-4-((5-fluoro-2,2-dimethyl-2,3-dihydrobenzofuran-7-yl)methoxy)benzyl)cyclopropanecarboxylic acid] | 130.66
CC1(C)Cc2cccc(COc3c(F)cc(C4CC4C(=O)O)cc3F)c2O1 (stereo not shown) [Example 24, 2-(4-((2,2-dimethyl-2,3-dihydrobenzofuran-7-yl)methoxy)-3,5-difluorophenyl)cyclopropanecarboxylic acid] | 100.3
CC1(C)Cc2cc(F)cc(COc3ccc(C4CC4C(=O)O)cc3)c2O1 (single isomer, unassigned) [Example 131A, 2-(4-((5-fluoro-2,2-dimethyl-2,3-dihydrobenzofuran-7-yl)methoxy)phenyl)cyclopropanecarboxylic acid] | 103.75
[2H]C([2H])(Oc1ccc(CC(C)C(=O)O)cc1C(F)(F)F)c1cc(F)cc2c1OC(C)(C)C2 (stereo not shown) [Example 231, 3-(4-(dideuterio(5-fluoro-2,2-dimethyl-2,3-dihydrobenzofuran-7-yl)methoxy)-3-(trifluoromethyl)phenyl)-2-methylpropanoic acid] | 101.01
C[C@H](Cc1ccc(OCc2cc(F)cc3c2OC(C)(C)C3)cc1)C(=O)O [Example 65, (R)-3-(4-((5-fluoro-2,2-dimethyl-2,3-dihydrobenzofuran-7-yl)methoxy)phenyl)-2-methylpropanoic acid] | 141.04
CC(C)Oc1ccc(Cl)cc1COc1cc2c(cc1F)C(CC(=O)O)CC2 (stereo not shown) [Example 257, 2-(5-((5-chloro-2-isopropoxybenzyl)oxy)-6-fluoro-2,3-dihydro-1H-inden-1-yl)acetic acid] | 124.62
Cc1c(CCC(=O)O)ccc(OCc2cc(Cl)cc3c2CC(C)(C)O3)c1C [Example 267, 3-(4-((6-chloro-2,2-dimethyl-2,3-dihydrobenzofuran-4-yl)methoxy)-2,3-dimethylphenyl)propanoic acid] | 140.82
CC1(C)Cc2cc(Cl)cc(COc3cc(F)c(CCC(=O)O)c(F)c3)c2O1 [Example 54, 3-(4-((5-chloro-2,2-dimethyl-2,3-dihydrobenzofuran-7-yl)methoxy)-2,6-difluorophenyl)propanoic acid] | 138.97
CC(=O)Nc1cc(COc2ccc(CC(C)C(=O)O)cc2)c2c(c1)CC(C)(C)O2 (stereo not shown) [Example 123, 3-(4-((5-acetamido-2,2-dimethyl-2,3-dihydrobenzofuran-7-yl)methoxy)phenyl)-2-methylpropanoic acid] | 47.01
